Experimental data from patent US8673914B2, “Use of phosphodiesterase inhibitors for treating multidrug resistance” (St. John's University, priority 2011, dated 2014).

Assays:
HEK/ABCB1 (ABCB1) = test: MTT cytotoxicity/reversal assay (Example 1); settings: HEK/ABCB1
Method: The KB-C2 and KB-3-1 were kindly provided by Dr. Akiyama (Kagoshima University, Japan). […] Similarly, the HEK/MRP1 (ABCC1) and HEK/ABCB1 cells were generated by transfecting the HEK293 cells with either the MRP1 expression vector or the ABCB1 expression vector. All of the cell lines were grown in Dulbecco's modified Eagle's medium (DMEM) supplemented with 10% bovine serum, 100 units/ml penicillin, and […] streptomycin in a humidified incubator containing 5% CO2 at 37° C.
(§1) The MTT assay was used to assess cytotoxicity. The cultured cells were harvested with trypsin and resuspended in a final concentration of 4×10^3 cells/well for KB-3-1; 7.5×10^3 cells/well for KB-C2; and 8×10^3 for all of the other cell lines used in this study. Cells were seeded evenly in 96-well multiplates. […] After 68 h of incubation, 20 μl of the MTT solution (4 mg/ml) was added to each well, and the plate was further incubated for 4 h at 37° C., allowing viable cells to convert the yellow-colored MTT into dark-blue formazan crystals. Subsequently, the medium was discarded, and 100 μl of DMSO was added into each well to dissolve the formazan crystals, generating purple color. The absorbance was determined at 570 nm by an OPSYS Microplate Reader from DYNEX Technologies, Inc. (Chantilly, Va.). […] The degree of the reversal of multidrug resistance (MDR) was calculated by dividing the IC50 of an anticancer drug, e.g., an antineoplastic or chemotherapeutic drug (agent, compound), in a cell type in the absence of a reversal agent by the IC50 of the anticancer drug in the same cell type in the presence of the reversal agent. The IC50 values were calculated from survival curves using the Bliss method.

HEK/MRP7 cells [1] = test: [^3H]-paclitaxel accumulation (Example 4); assay type: cell-based; settings: 5 μM, 2 h
Method: (§2) The effect of PDE5 inhibitors on the intracellular accumulation of paclitaxel in HEK293-pcDNA3.1 and HEK/MRP7 cells was measured using [^3H]-paclitaxel. […] For efflux studies, the cells were treated the same as in the drug accumulation study, and then washed three times with ice-cold PBS, and suspended in fresh medium with or without PDE5 inhibitors. Aliquots were evenly collected at various time points (0, 30, 60, and 120 min). Samples from both accumulation and efflux experiments were washed with ice-cold PBS three times and placed in scintillation fluid, and the radioactivity was measured in a Packard TRI-CARB® 1900CA liquid scintillation analyzer from Packard Instrument Company, Inc. (Downers Grove, Ill.).

HEK/MRP7 = test: MTT cytotoxicity assay (Example 4); assay type: cell-based
Method in brief: (§3)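 MTT viability assay in HEK293 cells carrying empty pcDNA3.1 or MRP7-transfected (G418-selected), seeded at 6000 cells/well in triplicate. Drug exposure 68 h. IC50 from survival curves by Bliss method.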

HEK 293-pcDNA-3.1 = test: MTT cytotoxicity assay (Example 4); assay type: cell-based; settings: HEK 293-pcDNA-3.1
Method in brief: as §3

KB-C2 (ABCB1) = test: MTT cytotoxicity/reversal assay (Example 1); assay type: cell-based, human
Method: (§4) The KB-C2 and KB-3-1 were kindly provided by Dr. Akiyama (Kagoshima University, Japan). HEK293-pcDNA3.1 and wild-type HEK/ABCG2 transfected cells were established by selection with G418 after transfecting HEK293 with either (1) empty pcDNA3.1 vector or (2) pcDNA3.1 vector containing full length of ABCG2 coding arginine (R) at amino acid position 482, and were then cultured in a medium with 2 mg/ml of G418 (ABCG2-482-R2 cells). Similarly, the HEK/MRP1 (ABCC1) and HEK/ABCB1 cells were generated by transfecting the HEK293 cells with either the MRP1 expression vector or the ABCB1 expression vector. All of the cell lines were grown in Dulbecco's modified Eagle's medium (DMEM) supplemented with 10% bovine serum, 100 units/ml penicillin, and […] streptomycin in a humidified incubator containing 5% CO2 at 37° C.
as §1

KB-3-1 = test: MTT cytotoxicity/reversal assay (Example 1); assay type: cell-based, human
Method: as §4, §1

KB-C2 cells (ABCB1) = test: [^3H]-paclitaxel accumulation (Example 1); assay type: cell-based, human; settings: 10 μM
Method: The intracellular accumulation of [^3H]-paclitaxel was measured as follows. […] Intracellular paclitaxel accumulation was measured by incubating cells with 0.1 μM [^3H]-paclitaxel for 2 h in the presence or absence of the reversal agents at 37° C. The cells were washed three times with ice-cold PBS, then suspended in fresh medium with or without reversal agents at 37° C. Aliquots of the extracellular medium (40 μl) were collected at various time points (0, 60, 120 min), and finally the cells were collected and lysed in 10 mM lysis buffer (pH 7.4, containing 1% Triton X-100 and 0.2% SDS). Each sample was placed in scintillation fluid and the radioactivity was measured in a Packard TRI-CARB1 1900CA liquid scintillation analyzer from Packard Instrument Company, Inc. (Downers Grove, Ill.).

HEK/MRP7 cells [2] = test: [^3H]-paclitaxel efflux (Example 4); assay type: cell-based; settings: 5 μM PDE5 inhibitor
Method: as §2

HEK293/pcDNA3.1 = test: MTT cytotoxicity/reversal assay (Example 1); assay type: cell-based
Method in brief: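 KB-3-1, ABCB1-overexpressing KB-C2, and HEK293 transfected with empty pcDNA3.1 or ABCG2 (R482) vector. MTT read at 570 nm after 68 h drug exposure plus 4 h MTT at 37 °C. IC50 from survival curves by Bliss method; fold-reversal = IC50 without reversal agent divided by IC50 with it.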

[3] = HEK293/pcDNA3.1, +5 μM reversal agent
[4] = HEK293/pcDNA3.1, +10 μM reversal agent

## CCCc1nc(C)c2c(=O)[nH]c(-c3cc(S(=O)(=O)N4CCN(CC)CC4)ccc3OCC)nn12 [Vardenafil, vardenafil]
HEK/ABCB1 (ABCB1); +5 μM reversal agent
  fold reversal, cisplatin: (0.95)
  fold reversal, paclitaxel: (3.86)
  fold reversal, vincristine: (4.10)
HEK/ABCB1 (ABCB1); +10 μM reversal agent
  fold reversal, cisplatin: (1.09)
  fold reversal, paclitaxel: (8.69)
  fold reversal, vincristine: (11.60)
HEK/MRP7 cells [1]
  increase of intracellular accumulation of [^3H]-paclitaxel: 3.7 fold
HEK/MRP7; +1.25 μM reversal agent
  fold-resistance, docetaxel: (5.56)
  fold-resistance, paclitaxel: (2.99)
  fold-resistance, vinblastine: (3.01)
HEK/MRP7; +5 μM reversal agent
  fold-resistance, cisplatin: (1.09)
  fold-resistance, docetaxel: (1.19)
  fold-resistance, paclitaxel: (1.06)
  fold-resistance, vinblastine: (1.11)
HEK 293-pcDNA-3.1; +1.25 μM reversal agent
  fold-resistance, docetaxel: (1.0)
  fold-resistance, paclitaxel: (0.93)
  fold-resistance, vinblastine: (0.96)
HEK 293-pcDNA-3.1; +5 μM reversal agent
  fold-resistance, cisplatin: (1.07)
  fold-resistance, docetaxel: (0.80)
  fold-resistance, paclitaxel: (0.79)
  fold-resistance, vinblastine: (0.85)
KB-C2 (ABCB1); +5 μM reversal agent
  fold reversal, cisplatin: (0.87)
  fold reversal, colchicine: (27.6)
  fold reversal, paclitaxel: (26.2)
KB-C2 (ABCB1); +10 μM reversal agent
  fold reversal, cisplatin: (0.96)
  fold reversal, colchicine: (184.8)
  fold reversal, paclitaxel: (54.1)
KB-3-1; +5 μM reversal agent
  fold reversal, cisplatin: (0.89)
  fold reversal, colchicine: (0.90)
  fold reversal, paclitaxel: (0.89)
KB-3-1; +10 μM reversal agent
  fold reversal, cisplatin: (0.93)
  fold reversal, colchicine: (0.93)
  fold reversal, paclitaxel: (0.92)
KB-C2 cells (ABCB1)
  increase of intracellular accumulation of paclitaxel: 1.6 fold
HEK/MRP7 cells [2]; 30 min
  percentage of intracellular [^3H]-paclitaxel: 95.34%
HEK/MRP7 cells [2]; 60 min
  percentage of intracellular [^3H]-paclitaxel: 93.58%
HEK/MRP7 cells [2]; 120 min
  percentage of intracellular [^3H]-paclitaxel: 63.92%
HEK293/pcDNA3.1; HEK293/pcDNA3.1 (Table 6), +10 μM reversal agent
  fold reversal, vincristine: (0.92)
HEK293/pcDNA3.1; [3]
  fold reversal, cisplatin: (1.06)
  fold reversal, paclitaxel: (1.09)
  fold reversal, vincristine: (0.88)
HEK293/pcDNA3.1; [4]
  fold reversal, SN-38: (1.10)
  fold reversal, cisplatin: (1.00)
  fold reversal, paclitaxel: (1.18)
  fold reversal, vincristine: (1.19)
